# Experimental data reported in ChEMBL document CHEMBL3826959, “Modification of existing antibiotics in the form of precursor prodrugs that can be subsequently activated by nitroreductases of the target pathogen” (Bioorg Med Chem Lett, 2016).
# Activity calls are given as the source filed them. The calls are words filed in the database; no cut-off is given here.
# How the values were obtained:
# [1] = test system: Staphylococcus saprophyticus; assay: Antibacterial activity against Staphylococcus saprophyticus ATCC 15305 measured after 18 hrs by agar dilution method; type: functional; conditions: ATCC 15305, 18 h
# [2] = test system: Staphylococcus saprophyticus; assay: Antibacterial activity against Staphylococcus saprophyticus ATCC 15305 measured after 18 hrs by broth dilution method; type: functional; conditions: ATCC 15305, 18 h
# [3] = Drug level assessed as Staphylococcus saprophyticus ATCC 15305 nitroreductase B mediated compound formation using 130 uM NO2-SMX measured after 200 mins in presence of NADPH-cofactor generating system by LC-MS/MS analysis; type: ADME; conditions: isolated protein
# [4] = Stability of the compound; type: physicochemical
# [5] = Drug level assessed as Staphylococcus saprophyticus ATCC 15305 nitroreductase B mediated compound formation using at 2 mM NO2-SMX 2 mM in presence of NADPH-cofactor generating system by ESI-MS analysis; type: ADME; conditions: isolated protein, 2000 µM
# [6] = Prodrug activation assessed as Staphylococcus saprophyticus ATCC 15305 nitroreductase B mediated […] at 130 uM measured after 200 mins in presence of NADPH-cofactor generating system by LC-MS/MS analysis; conditions: isolated protein
# [7] = Prodrug activation assessed as Staphylococcus saprophyticus ATCC 15305 nitroreductase B mediated sulfamethoxazole formation at 2 mM in presence of NADPH-cofactor generating system by ESI-MS analysis; conditions: isolated protein, 2000 µM
# [8] = Prodrug activation assessed as Staphylococcus saprophyticus ATCC 15305 nitroreductase B mediated N-OH-sulfamethoxazole formation at 2 mM in presence of NADPH-cofactor generating system by ESI-MS analysis; conditions: isolated protein, 2000 µM
# [9] = test system: Staphylococcus saprophyticus; assay: Antibacterial activity against Staphylococcus saprophyticus ATCC 15305 assessed as zone of inhibition at 57 ug/disc measured after 16 to 24 hrs by agar diffusion method; type: functional
# [10] = Prodrug activation assessed as Staphylococcus saprophyticus ATCC 15305 nitroreductase B mediated sulfamethoxazole formation at 130 uM measured after 200 mins in presence of NADPH-cofactor generating system by LC-MS/MS analysis; conditions: isolated protein
# [11] = Prodrug activation assessed as Staphylococcus saprophyticus ATCC 15305 nitroreductase B mediated N-OH-sulfamethoxazole formation at 130 uM measured after 200 mins in presence of NADPH-cofactor generating system by LC-MS/MS analysis; conditions: isolated protein
# [12] = test system: Staphylococcus saprophyticus; assay: Activity at Staphylococcus saprophyticus ATCC 15305 nitroreductase B by UV-vis spectrophotometry based Michaelis-Menten plot analsysis
# [13] = Prodrug activation assessed as Staphylococcus saprophyticus ATCC 15305 nitroreductase B mediated […] at 2 mM in presence of NADPH-cofactor generating system by ESI-MS analysis; conditions: isolated protein, 2000 µM
# [14] = test system: Staphylococcus saprophyticus; assay: Antibacterial activity against Staphylococcus saprophyticus ATCC 15305 assessed as bacterial survival measured after 18 hrs by broth dilution method; type: functional
# [15] = test system: Staphylococcus saprophyticus; assay: Antibacterial activity against Staphylococcus saprophyticus ATCC 15305 assessed as zone of inhibition at 51 ug/disc measured after 16 to 24 hrs by agar diffusion method; type: functional; conditions: read-out: DIZ
# [16] = test system: Staphylococcus saprophyticus; assay: Antibacterial activity against Staphylococcus saprophyticus ATCC 15305 assessed as zone of inhibition at 54 ug/disc measured after 16 to 24 hrs by agar diffusion method; type: functional; conditions: read-out: DIZ
# [17] = test system: Staphylococcus saprophyticus; assay: microbe, parasite or virus in culture; conditions: ATCC 15305, read-out: DIZ
# Description: Antibacterial activity against Staphylococcus saprophyticus ATCC 15305 assessed as zone of inhibition at 300 ug/disc measured after 16 to 24 hrs by agar diffusion method
smiles,measurement,setting,value
NC(=O)N/N=C/c1ccc([N+](=O)[O-])o1 [NITROFURAZONE],MIC,[1],128 µg/mL
same,MIC,[2],32 µg/mL
Cc1cc(NS(=O)(=O)c2ccc(N=O)cc2)no1,Drug metabolism,[3],metabolite_detected
same,Stability,[4],Unstable
Cc1cc(NS(=O)(=O)c2ccc([N+](=O)[O-])cc2)no1,MIC,[1],2050 µg/mL
same,Drug metabolism,[5],metabolite_detected
same,Drug metabolism,[6],metabolite_detected
same,Drug metabolism,[7],metabolite_notdetected
same,Drug metabolism,[8],metabolite_detected
same,diameter of the inhibition zone (DIZ),[9],inactive
same,Drug metabolism,[10],metabolite_detected
same,MIC,[2],2050 µg/mL
same,Drug metabolism,[11],metabolite_detected
same,Km,[12],92.6 µM
same,kcat,[12],2.95 s⁻¹
same,Drug metabolism,[13],metabolite_detected
Cc1cc(NS(=O)(=O)c2ccc(N)cc2)no1 [SULFAMETHOXAZOLE],MIC,[1],2050 µg/mL
same,MIC,[2],4100 µg/mL
same,Activity,[14],12%
same,Drug metabolism,[3],metabolite_detected
same,zone of inhibition at 51 µg/disc,[15],16 mm
Cc1cc(NS(=O)(=O)c2ccc(NO)cc2)no1,MIC,[2],2050 µg/mL
same,Drug metabolism,[3],metabolite_detected
same,zone of inhibition at 54 µg/disc,[16],10 mm
O=C1CN(/N=C/c2ccc([N+](=O)[O-])o2)C(=O)N1 [NITROFURANTOIN],MIC,[1],8 µg/mL
same,zone of inhibition at 300 µg/disc,[17],18 mm
same,MIC,[2],8 µg/mL
